The values that follow come from US20240130988A1, “Use of stilbene compounds in the preparation of anti-tumor drugs” (Guangzhou AnHao Pharmaceutical Technology CO., LTD., priority 2022, published 2024).

Assay [1] relates to human liver cancer QGY7703. The assay can be described thus: Human liver cancer QGY7703 transplanted tumor in nude mice. It counts as in vivo, BALB/C nude mice. The arrangement: key to RTV (d 18): RTV = Vt/Vo, tumor volume relative to volume at grouping (d1). Conditions: QGY7703, 100 mg/kg iv × 14; for inhibition in vivo at 100 mg/kg: Mus musculus, QGY-7703, read-out: Tumor inhibitory rate %. The procedure:
A human liver cancer QGY7703 model transplanted into nude mice was used in the experiment to investigate the anti-tumor effect of test compounds. The mice were intravenously injected at a dosage of 100 mg/kg for 14 days, and the tumor inhibition rate against human liver cancer QGY7703 was measured.
(§1) Preparation: The compound was prepared as the injection at the desired concentration with sterile normal saline, prior to administration.
Animal strain: BALB/C nude mice (SPF grade), weight: 19-21 g, gender: male. Number of animals in each treatment group: 8; number of animals in the control group: >12.
The tumor blocks of human liver cancer QGY7703 with good growth were cut into uniform small pieces of 3 mm under sterile conditions, and then subcutaneously inoculated into the right armpit of each mouse with a cannula. These mice were divided into 9 groups, 8 mice for each treatment group, while more than 12 mice were included in the control group.
(§2) 14 days after inoculation, the average volume of the tumor block was about 100 mm^3. The animals were regrouped based on the size of the tumor, and the animals with tumors that were too large and too small were sifted out. For each group, the average volume of tumors was basically the same, and then the mice were initially treated with test compounds. The mice in the treatment groups were intravenously injected once a day for 14 days, at a dosage of 0.1 mL/20 g body weight; the mice in the control group were given the same volume of sterile normal saline. From the 14th day of inoculation, the long diameter a (mm) of the tumor, together with the perpendicular short diameter b (mm), was measured using a digital electronic caliper, twice a week. The calculation formula of tumor volume is: TV=ab^2/2, and the formula for calculating the relative tumor volume is RTV=Vt/Vo, wherein Vo denotes the tumor volume measured when the mice were divided into groups (i.e. d1), and Vt is the tumor volume from each measurement.
(§3) The result determination is based on the following formula: […]

Assay [2] has as its system LLC (mouse lung cancer cells). The assay can be described thus: Enrichment of CD8+ cytotoxic T lymphocytes in tumor tissue, Lewis non-small cell lung cancer model of mice. It is filed as in vivo. Conditions: 400 mg/kg ip once a day for 10 days, flow cytometry. Here is the method: LLC (mouse lung cancer cells) were a mouse Lewis lung cancer cells.
The modeling method for LLC cell lung cancer in mice was as follows:
LLC cells were cultured in the general medium containing 10% fetal bovine serum and 100 μg/mL of double antibody (penicillin±streptomycin), and then cultivated in a 37° C., 5% CO2 cell incubator for routine incubation. LLC cells, that had grown to logarithmic phase, were digested with 0.25% trypsin (containing EDTA) to form a cell suspension, which was centrifuged at 1000 rpm/min for 3 min. The supernatant was discarded, and cell precipitates were collected, that were resuspended in culture medium without serum and double antibody. The cell suspension was further centrifuged to adjust the volume under the same conditions with the aid of cell counting, so as to prepare a cell suspension at a concentration of […] was injected into the right abdomen of each mouse, to complete the inoculation of tumor cells. The tumor was allowed to grew about 10 days, and the volume reached around 100 mm^3, before the mice were treated with test compounds.
Drug preparation: compounds 1-13 of the present invention were respective prepared into an injection with injection water.
Experimental methods: The model mice with LLC cell lung cancer were treated by intraperitoneal administration of 400 mg/kg injection containing the compound of the present invention. The model mice were divided into a negative control group (model mice only receiving equal volume of injection water by intraperitoneal administration) and treatment groups (model mice receiving the injection prepared with the compound of the present invention by intraperitoneal administration). The intraperitoneal injection regimen was carried out by injecting once a day at the pre-determined time. Before administration, the mice were weighed, and then treated with the injection at a dosage of 10 mL/kg, After successive administration for 10 days, that is, on the 10th day after receiving treatment, the mice were sacrificed, and the subcutaneous tumors were stripped to detect the ratio of cytotoxic T lymphocyte antigen CD8^+ in tumor tissues of the negative group and the treatment group by flow cytometry.
CD8^+ tumor-infiltrating lymphocytes in tumor tissues were detected by flow cytometry. The specific steps were as follows:
The mice were sacrificed, and then the abdominal epidermis of the mice was cut open using ophthalmic scissors, to fully expose the subcutaneous tumors. The subcutaneous tumor tissues on the right side of the mouse's abdomen were gradually peeled off with tweezers and ophthalmic scissors. After rinsing with PBS, the stripped tumor tissues were cut into about 1 mm using ophthalmic scissors, and then placed in 3 mL of PBS buffer containing 100 μg/mL of hyaluronidase. A centrifuge tube containing a dispersed liquid was placed in a water bath and kept at 37° C. for 20 min. A pipette was used to blow and shake the digestive tumor tissues every 5 minutes to fully digest. The dispersed liquid containing undigested tumor tissues was filtered through a 70 μm stainless steel cell screen, and the remaining undigested tumor tissues were ground using a push rod of 20 mL syringe on 70 μm cell screen and rinsed 5 times with 1 mL of PBS while grinding. The cell suspension passing the cell screen was transferred to a 15 mL centrifuge tube, and centrifuged at 4000 rpm for 3 min. Then, cell precipitates were collected, to which was added 2 mL of red cell lysis buffer, and rested for 10 min, followed by centrifuging at 4000 rpm for 3 min. After washing with PBS, the cells were resuspended by adding 2-3 mL of PBS.
An appropriate amount of cell suspension was used as the sample for flow cytometry, and after counting, the cell suspension was adjusted to have a concentration of 5×10^6/mL. 100 μL of cell suspension was added to a test tube with a pipettor. […]
In general terms: Flow cytometry measures light scatter and fluorescence of single cells or particles in a stream.

Assay [3] relates to LLC (mouse lung cancer cells). The assay is described as above. It is filed as in vivo. Conditions: 400 mg/kg ip once a day for 10 days, CD8+ immunohistochemistry.
The subject of assay [4] is nonfusion human umbilical vein endothelial cells (HUVEC). The assay can be described thus: TMT quantitative proteomics on nonfusion HUVEC. Conditions: 10 μM; for Differentially expressed proteins: more than 1.5 times or less than 0.67 times vs control; for Down-regulation / Up-regulation: number of proteins. It is filed as cell-based. The procedure:
Nonfusion human umbilical vein endothelial cells (HUVEC) were used to simulate new tumor blood vessels, while confluent HUVECs were used to simulate normal blood vessels, to construct experimental models. Two different HUVECs were treated with the compound at the same dosage of 10 μM, to simulate the fusion cell state, and proteome samples were prepared. After preparation of peptide segments, the segments were labelled with TMT, and a quantitative proteomics analysis was carried out. The efficiency of TMT labeling was higher than 99.4%, and a total of 28372 peptide segments from 4934 proteins were characterized using a strict 1% FDR limit. Among them, 4909 quantifiable proteins were identified, indicating reliable quality. The nonfusion treatment groups and the fusion treatment groups were compared with their respective control groups, and the control group was used as a reference, with a significant difference of more than 1.5 times or less than 0.67 times as the protein score standard.
The total cell proteins of the samples in nonfusion cell groups and fusion cell groups were extracted separately, and 2 μg of protein samples were subjected to quality analysis, The quantitative proteomics experiments were carried out, and the protein concentration assay was performed by quantitative grayscale measurement.
Data analysis: The human protein database (Scientific name: Homo sapiens, 9606) was downloaded from UniProt, MaxQuant (v 1.5.5.1) search engine was used to search for the database. A total of 4934 proteins (4909 quantitative proteins) and 28372 peptide segments were identified by TMT quantitative proteomics experiments, with a labeling efficiency of more than 99%, and the complete digestion occupied 86.3%.

For another assay, the system named is human lung cancer A549. The assay can be described thus: Human lung cancer A549 transplanted tumors in nude mice. It counts as in vivo, BALB/C nude mice. Conditions: A549, 400 mg/kg ig × 14. Here is the method:
In this experiment, a human lung cancer A549 model transplanted into nude mice was selected to study the anti-tumor effect of test compounds. The mice were treated at a dosage of 400 mg/kg by gavage for 14 days, and the tumor inhibition rate against human lung cancer A549 was measured.
Preparation: The compound was prepared as the solution at the desired concentration with distilled water, prior to administration.
Animal strain: BALB/C nude mice (SPF grade), weight: 19-21 g, gender: male. Number of animals in each treatment group: 8; Number of animals in the control group: >12.
Lung cancer A549 tumor blocks with good growth were chosen and cut into uniform small pieces of 3 mm under sterile conditions, and then subcutaneously inoculated into the right armpit of each mouse with a cannula. These mice were divided into 9 groups, 8 mice for each treatment group, while more than 12 mice were included in the control group.
14 days after inoculation, the average volume of the tumor mass was about 100 mm^3. The animals were regrouped based on the size of the tumor, and the mice with tumors that were too large and too small were eliminated. For each group, the average volume of tumors was basically the same, and then the mice were treated with test compounds. The mice in the treatment groups were administered once a day by gavage for 14 successive days, at a dosage of 0.5 mL/20 g body weight; the mice in the control group were given the same volume of physiological saline. From the 14th day of inoculation, the long diameter a (mm) of the tumor, together with the perpendicular short diameter b (mm), was measured using a digital electronic caliper, twice a week. The calculation formula of tumor volume is: TV=ab^2/2, and the formula for calculating the relative tumor volume is RTV=Vt/Vo, wherein Vo denotes the tumor volume measured when the mice were divided into groups (i.e. d1), and Vt is the tumor volume from each measurement.
as §3

The subject of assay [5] is human gastric cancer MGC803. The assay can be described thus: Human gastric cancer MGC803 transplanted tumor in nude mice. It counts as in vivo, BALB/C nude mice. Conditions: MGC803, 200 mg/kg ip × 14. The procedure: A human gastric cancer MGC803 model transplanted into nude mice was used in the experiment to investigate the anti-tumor effect of test compounds.
as §1
Animal strain: BALB/C nude mice (SPF grade), weight: 19-21 g, gender: male.
Number of animals in each treatment group: 8; number of animals in the control group: >12.
The tumor blocks of human gastric cancer MGC803 with good growth were cut into uniform small pieces of 3 mm under sterile conditions, and then subcutaneously inoculated into the right armpit of each mouse with a cannula. These mice were divided into 9 groups, 8 mice for each treatment group, while more than 12 mice were included in the control group.
as §2, with “mice” for “mice in the treatment groups”, “intraperitoneally” for “intravenously”, “0.2” for “0.1”, “weight.” for “weight; the mice in the control group were given the same volume of sterile normal saline.”, “groups(i.e.” for “groups (i.e.”
as §3

Marks after values point to notes of the source that are not given here.

Take `COc1ccc(/C=C(/C(=O)O)c2cc(OC)c(OC)c(OC)c2)c(O)c1O` [Compound 2, (E)-3-(2,3-dihydroxy-4-methoxyphenyl)-2-(3,4,5-trimethoxylphenyl)acrylic acid]: in assay [1], the inhibition in vivo at 100 mg/kg stood at 64.9% and the “RTV (d 18)” value worked out at 4.51 ± 0.58. The “The ratio of CD8^+ in total immune cells of tumor tissues (%)” value (from here on “The ratio of CD8^+ … (%)”) in assay [2] (400 mg/kg) turned out to be 0.0823 ± 0.0112%. The “The ratio of distribution area in tumor tissues (%)” value (shortened to “The ratio … in tumor tissues (%)”) in assay [3] (400 mg/kg) is 7.147 ± 0.7528%. In addition, in assay [4], the Differentially expressed proteins stood at 298, the Down-regulation was 288 and the Up-regulation is 10.
For the compound `COc1cc(/C(=C\c2cc(O)c(OC)c(Cl)c2)C(=O)O)cc(OC)c1OC` [Compound 5, (E)-3-(3-chloro-5-hydroxy-4-methoxyphenyl)-2-(3,4,5-trimethoxyphenyl) acrylic acid], in the assay with human lung cancer A549, the “RTV (d 22)” value is on record as 5.73 ± 1.25. Moreover, the inhibition in vivo at 400 mg/kg with human lung cancer A549 (Mus musculus, po, read-out: Tumor inhibitory rate %) was 51.2%. Moreover, the “The ratio of CD8^+ … (%)” value in assay [2] was 0.0833 ± 0.0107%. Further, the “The ratio … in tumor tissues (%)” value in assay [3] was found to be 7.438 ± 0.7610%. Further, in assay [4], the Differentially expressed proteins is 304, the Down-regulation is on record as 297 and the Up-regulation stood at 7.
For `COc1cc(/C=C(/C(=O)O)c2cc(OC)c(OC)c(OC)c2)ccc1O` [Compound 7, (E)-3-(4-hydroxy-3-methoxyphenyl)-2-(3,4,5-trimethoxyphenyl)acrylic acid], in assay [1], the inhibition in vivo at 100 mg/kg was 64% and the “RTV (d 18)” value is on record as 4.63 ± 0.75. In assay [5], the “RTV (d 18)” value stood at 4.46 ± 0.62 and the “Tumor inhibitory rate %” value is listed as 61.28^## %. Also, in assay [2], the “The ratio of CD8^+ … (%)” value came to 0.0774 ± 0.0115%. Further, the “The ratio … in tumor tissues (%)” value in assay [3] came to 6.653 ± 0.7791%. In assay [4], this compound showed a Differentially expressed proteins of 289, a Down-regulation of 281 and an Up-regulation of 8.
